{"source": "patent US20100255580A1", "about": "“Differentiation of Human Embryonic Stem Cells” (LIFESCCAN, INC., priority 2007, published 2010)", "system": "H9 embryonic stem cells", "assay_type": "cell-based, human", "procedure": "Controls for each group included cells plated on […]-coated dishes and cultured in MEF-conditioned medium or cells plated on MEFs and cultured in ES medium. All groups contained three biological replicates and each biological replicate was repeated on two separate gene chips.\nSample preparation, hybridization, and image analysis were performed according to the Affymetrix Human Genome U133 Plus 2.0 Array. Following normalization and a log transformation, data analysis was performed using OmniViz® software (MA) and […] (VizXLabs, WA). Significant differences in gene expression between the samples were evaluated using analysis of variance and an F-test with adjusted P-value (Benjamini and\nHochberg correction) of ≦b 0.05. Only genes with a present call in at least one group were included in the analysis.", "key": {"[1]": {"conditions": "DE treatment in low serum, on MEFS"}}, "data": [{"substance": "Activin A: a member of the TGFβ superfamily; R&D Systems; Group 2 = Activin A (100 ng/ml)", "values": [{"measurement": "mean normalized intensity (log format), gene: Homo sapiens methyl-CpG binding protein MBD2 (MBD2) mRNA, complete cds.", "setting": "[1]", "result": "−1.702"}, {"measurement": "mean normalized intensity (log format), gene: Homo sapiens tachykinin, precursor 1 (TAC1), transcript variant beta, mRNA.", "setting": "[1]", "result": 1.483}, {"measurement": "mean normalized intensity (log format), gene: Homo sapiens testis expressed sequence 14 (TEX14), mRNA.", "setting": "[1]", "result": "−1.3824"}, {"measurement": "mean normalized intensity (log format), gene: Homo sapiens, Similar to LIM homeobox protein 8, clone IMAGE: 4839343, mRNA.", "setting": "[1]", "result": "−1.11"}, {"measurement": "mean normalized intensity (log format), gene: Homo sapiens, Similar to cadherin 6, type 2, K-cadherin (fetal kidney), clone MGC: 1470, mRNA, complete cds.", "setting": "[1]", "result": 2.134}, {"measurement": "mean normalized intensity (log format), gene: Homo sapiens, Similar to hypothetical protein FLJ10058, clone MGC: 34305 IMAGE: 5167647, mRNA, complete cds.", "setting": "[1]", "result": 0.2156}, {"measurement": "mean normalized intensity (log format), gene: Homo sapiens, Similar to hypothetical protein FLJ32001, clone MGC: 39559 IMAGE: 4828136, mRNA, complete cds.", "setting": "[1]", "result": 1.269}, {"measurement": "mean normalized intensity (log format), gene: Homo sapiens, clone IMAGE: 4067166, mRNA", "setting": "[1]", "result": 0.277}, {"measurement": "mean normalized intensity (log format), gene: Homo sapiens, clone IMAGE: 4828836, mRNA.", "setting": "[1]", "result": "−1.484"}, {"measurement": "mean normalized intensity (log format), gene: Homo sapiens, serine (or cysteine) proteinase inhibitor, clade B (ovalbumin), member 3, clone MGC: 12244, mRNA, complete cds.", "setting": "[1]", "result": "−1.566"}, {"measurement": "mean normalized intensity (log format), gene: Human mRNA upregulated during camptothecin-induced apoptosis of U937 cells.", "setting": "[1]", "result": "−0.1892"}, {"measurement": "mean normalized intensity (log format), gene: Human platelet-derived growth factor alpha-receptor (PDGFRA) mRNA, exons 13-16", "setting": "[1]", "result": 2.905}, {"measurement": "mean normalized intensity (log format), gene: KIAA1151 protein", "setting": "[1]", "result": 1.009}, {"measurement": "mean normalized intensity (log format), gene: caldesmon 1", "setting": "[1]", "result": 5.634}, {"measurement": "mean normalized intensity (log format), gene: nuclear receptor subfamily 1, group I, member 3", "setting": "[1]", "result": "−0.1968"}, {"measurement": "mean normalized intensity (log format), gene: paternally expressed 3 (r2033)", "setting": "[1]", "result": "−0.0118"}, {"measurement": "mean normalized intensity (log format), gene: paternally expressed 3 (r2093)", "setting": "[1]", "result": "−3.492"}, {"measurement": "log intensity, AD036 mRNA", "setting": "low serum, on MATRIGEL", "result": "−0.5033"}, {"measurement": "log intensity, ADP-ribosylation factor 4-like (ARF4L)", "setting": "low serum, on MATRIGEL", "result": 1.635}, {"measurement": "log intensity, BACE mRNA for beta-site APP cleaving enzyme I-476", "setting": "low serum, on MATRIGEL", "result": 0.4855}, {"measurement": "log intensity, BTB (POZ) domain containing 2 (BTBD2)", "setting": "low serum, on MATRIGEL", "result": 1.101}, {"measurement": "log intensity, CXCR4 gene encoding receptor CXCR4", "setting": "low serum, on MATRIGEL", "result": 3.111}, {"measurement": "log intensity, Cluster Incl. AB002344: Human mRNA for KIAA0346 gene (r901)", "setting": "low serum, on MATRIGEL", "result": 2.157}, {"measurement": "log intensity, Cluster Incl. AB002344: Human mRNA for KIAA0346 gene (r941)", "setting": "low serum, on MATRIGEL", "result": 1.896}, {"measurement": "log intensity, Cluster Incl. L37033: Human FK-506 binding protein homologue (FKBP38)", "setting": "low serum, on MATRIGEL", "result": 0.6156}, {"measurement": "log intensity, Cluster Incl. N80935: zb07g06.s1 Homo sapiens cDNA", "setting": "low serum, on MATRIGEL", "result": 2.124}, {"measurement": "log intensity, ESTs (r403)", "setting": "low serum, on MATRIGEL", "result": 0.7843}, {"measurement": "log intensity, ESTs (r404)", "setting": "low serum, on MATRIGEL", "result": "−1.263"}, {"measurement": "log intensity, ESTs (r405)", "setting": "low serum, on MATRIGEL", "result": "−1.717"}, {"measurement": "log intensity, ESTs (r442)", "setting": "low serum, on MATRIGEL", "result": 2.774}, {"measurement": "log intensity, ESTs (r453)", "setting": "low serum, on MATRIGEL", "result": "−1.637"}, {"measurement": "log intensity, ESTs (r473)", "setting": "low serum, on MATRIGEL", "result": "−0.04834"}, {"measurement": "log intensity, ESTs (r491)", "setting": "low serum, on MATRIGEL", "result": "−1.344"}, {"measurement": "log intensity, ESTs (r522)", "setting": "low serum, on MATRIGEL", "result": "−0.8015"}, {"measurement": "log intensity, ESTs (r523)", "setting": "low serum, on MATRIGEL", "result": "−2.576"}, {"measurement": "log intensity, ESTs (r524)", "setting": "low serum, on MATRIGEL", "result": 0.4996}, {"measurement": "log intensity, ESTs (r556)", "setting": "low serum, on MATRIGEL", "result": "−0.1206"}, {"measurement": "log intensity, ESTs (r567)", "setting": "low serum, on MATRIGEL", "result": "−2.015"}, {"measurement": "log intensity, ESTs (r627)", "setting": "low serum, on MATRIGEL", "result": 2.542}, {"measurement": "log intensity, ESTs (r741)", "setting": "low serum, on MATRIGEL", "result": "−0.004009"}, {"measurement": "log intensity, ESTs (r745)", "setting": "low serum, on MATRIGEL", "result": 1.386}, {"measurement": "log intensity, ESTs (r766)", "setting": "low serum, on MATRIGEL", "result": 1.047}, {"measurement": "log intensity, ESTs (r767)", "setting": "low serum, on MATRIGEL", "result": "−1.485"}, {"measurement": "log intensity, ESTs (r891)", "setting": "low serum, on MATRIGEL", "result": "−2.079"}, {"measurement": "log intensity, ESTs (r916)", "setting": "low serum, on MATRIGEL", "result": "−0.1464"}, {"measurement": "log intensity, ESTs (r938)", "setting": "low serum, on MATRIGEL", "result": "−1.246"}, {"measurement": "log intensity, ESTs (r980)", "setting": "low serum, on MATRIGEL", "result": "−0.1842"}, {"measurement": "log intensity, ESTs (r1021)", "setting": "low serum, on MATRIGEL", "result": "−0.4037"}, {"measurement": "log intensity, ESTs (r1022)", "setting": "low serum, on MATRIGEL", "result": 2.144}, {"measurement": "log intensity, ESTs (r1059)", "setting": "low serum, on MATRIGEL", "result": 0.7835}, {"measurement": "log intensity, ESTs (r1060)", "setting": "low serum, on MATRIGEL", "result": 1.175}, {"measurement": "log intensity, ESTs (r1110)", "setting": "low serum, on MATRIGEL", "result": 0.533}, {"measurement": "log intensity, ESTs (r1115)", "setting": "low serum, on MATRIGEL", "result": "−1.164"}, {"measurement": "log intensity, ESTs, Highly similar to AF229172 1 class III myosin", "setting": "low serum, on MATRIGEL", "result": "−0.4755"}, {"measurement": "log intensity, ESTs, Moderately similar to ALU4_HUMAN ALU SUBFAMILY SB2", "setting": "low serum, on MATRIGEL", "result": "−1.104"}, {"measurement": "log intensity, ESTs, Moderately similar to JC4969 pig-c protein", "setting": "low serum, on MATRIGEL", "result": "−2.397"}, {"measurement": "log intensity, ESTs, Moderately similar to NFY-C", "setting": "low serum, on MATRIGEL", "result": "−0.7494"}, {"measurement": "log intensity, ESTs, Weakly similar to A46302 PTB-associated splicing factor, long form", "setting": "low serum, on MATRIGEL", "result": 0.8941}, {"measurement": "log intensity, ESTs, Weakly similar to ALU8_HUMAN ALU SUBFAMILY SX", "setting": "low serum, on MATRIGEL", "result": 2.766}, {"measurement": "log intensity, ESTs, Weakly similar to ALUC_HUMAN", "setting": "low serum, on MATRIGEL", "result": 1.08}, {"measurement": "log intensity, ESTs, Weakly similar to ALUF_HUMAN", "setting": "low serum, on MATRIGEL", "result": "−1.032"}, {"measurement": "log intensity, ESTs, Weakly similar to KIAA1330 protein", "setting": "low serum, on MATRIGEL", "result": "−0.9252"}, {"measurement": "log intensity, ESTs, Weakly similar to KIAA1399 protein", "setting": "low serum, on MATRIGEL", "result": "−0.8312"}, {"measurement": "log intensity, ESTs, Weakly similar to T32252 hypothetical protein T15B7.2", "setting": "low serum, on MATRIGEL", "result": 2.21}, {"measurement": "log intensity, ESTs, Weakly similar to Z132_HUMAN ZINC FINGER PROTEIN 13", "setting": "low serum, on MATRIGEL", "result": 1.049}, {"measurement": "log intensity, F37Esophageal cancer-related gene-coding leucine-zipper motif (FEZ1)", "setting": "low serum, on MATRIGEL", "result": "−0.1288"}, {"measurement": "log intensity, FLICE-like inhibitory protein short form", "setting": "low serum, on MATRIGEL", "result": 0.1358}, {"measurement": "log intensity, GS1999full mRNA", "setting": "low serum, on MATRIGEL", "result": 0.137}, {"measurement": "log intensity, H1 histone family, member X (H1FX)", "setting": "low serum, on MATRIGEL", "result": 3.217}]}]}
